Experimental data: ChEMBL document CHEMBL5724696, “Autophagy assay results for EUbOPEN Chemogenomics Library” (2024)

Experiments:
Assay type in all cases: functional, Homo sapiens
[1] = tested on: TERT-RPE1; test: (§1) Here: values are normalized to the negative (DMSO; defined as 0% autophagy induction) and positive (250nM Torin1; mTOR inhibitor; defined as maximal inducer of autophagy = 100%) control compounds and represented as % of autophagy induction. […] The impact of autophagy induction on cells is complex and depends on the affected target. As such, the magnitude of a phenotype may not be equally mirrored in the %-value of autophagy induction and vice versa. The dynamics of the induction may indicate the mode of activation: e.g. activation via phosphorylation or a signaling cascade may occur fast, while activation via transcription factors may take considerably longer. […] Of note, treatment concentrations may be sub-optimal for specific compounds, leading to false negative annotations.; settings: Culturing Media DMEM/F12 (1:1), 1 % Penicillin/Streptomycin, 10% Fetal bovin serum Add-On: No, Screening Media Control DMEM/F12 (1:1), Screening Media Samples DMEM/F12 (1:1)
[2] = tested on: U2OS; test: as §1; settings: Culturing Media DMEM, 1 % Penicillin/Streptomycin, 10% Fetal bovin serum Add-On: No, Screening Media Control DMEM, Screening Media Samples DMEM
[3] = tested on: U2OS; test: as §1; settings: Culturing Media DMEM, 1 % Penicillin/Streptomycin, 10% Fetal bovin serum Add-On: No, Screening Media Control DMEM, Screening Media Samples DMEM; remark: listed apart in the source
[4] = Compound Concentration 0.5 uM, Timepoint 12 hours
[5] = Compound Concentration 0.5 uM, Timepoint 24 hours
[6] = Compound Concentration 0.5 uM, Timepoint 36 hours
[7] = Compound Concentration 0.5 uM, Timepoint 60 hours
[8] = Compound Concentration 2 uM, Timepoint 12 hours
[9] = Compound Concentration 2 uM, Timepoint 24 hours
[10] = Compound Concentration 2 uM, Timepoint 36 hours
[11] = Compound Concentration 2 uM, Timepoint 60 hours
[12] = Compound Concentration 10 uM, Timepoint 12 hours
[13] = Compound Concentration 10 uM, Timepoint 24 hours
[14] = Compound Concentration 10 uM, Timepoint 36 hours
[15] = Compound Concentration 10 uM, Timepoint 60 hours

SMILES	autophagy induction [1, 4] [%]	autophagy induction [1, 5] [%]	autophagy induction [1, 6] [%]	autophagy induction [1, 7] [%]	autophagy induction [1, 8] [%]	autophagy induction [1, 9] [%]	autophagy induction [1, 10] [%]	autophagy induction [1, 11] [%]	autophagy induction [1, 12] [%]	autophagy induction [1, 13] [%]	autophagy induction [1, 14] [%]	autophagy induction [1, 15] [%]	autophagy induction [2, 4] [%]	autophagy induction [2, 5] [%]	autophagy induction [2, 6] [%]	autophagy induction [2, 7] [%]	autophagy induction [2, 8] [%]	autophagy induction [2, 9] [%]	autophagy induction [2, 10] [%]	autophagy induction [2, 11] [%]	further results
O=C(O)C1CN(Cc2ccc(-c3nc4cc(Cc5ccccc5F)ccc4s3)c(F)c2)C1	-8.917	-10.8072	-9.562	-5.859	-8.468	-9.963	-11.3812	-13.3438	-4.678	-6.178	-7.73	-6.2118	4.055	-0.4566	-1.32	-0.5858	1.76	0.3602	-0.6521	-0.7655	autophagy induction [2, 12]: -1.302%; autophagy induction [2, 13]: -1.781%; autophagy induction [2, 14]: -1.367%; autophagy induction [2, 15]: -0.5842%; autophagy induction [3, 4]: 3.797%; autophagy induction [3, 5]: -4.944%; autophagy induction [3, 6]: -8.688%; autophagy induction [3, 7]: -8.1655%; autophagy induction [3, 8]: 22.0588%; autophagy induction [3, 9]: 16.1887%; autophagy induction [3, 10]: 14.8366%; autophagy induction [3, 11]: 4.458%; autophagy induction [3, 12]: 26.4516%; autophagy induction [3, 13]: 18.766%; autophagy induction [3, 14]: 13.3531%; autophagy induction [3, 15]: 2.726%
Cc1nnn(-c2ccc(-c3ccc(C4(C(=O)O)CC4)cc3)cc2)c1NC(=O)O[C@H](C)c1ccccc1	-8.995	-11.6561	-16.9316	-15.4997	-6.061	-9.8231	-13.2189	6.862	6.725	7.557	8.9017	33.5372	2.665	0.2559	-0.1373	0.1457	3.283	0.4892	-0.1911	-0.4752	autophagy induction [2, 12]: 8.52%; autophagy induction [2, 13]: 5.722%; autophagy induction [2, 14]: 2.388%; autophagy induction [2, 15]: 0.4676%; autophagy induction [3, 4]: -1.478%; autophagy induction [3, 5]: 0.2424%; autophagy induction [3, 6]: -2.356%; autophagy induction [3, 7]: -5.696%; autophagy induction [3, 8]: 5.693%; autophagy induction [3, 9]: 3.627%; autophagy induction [3, 10]: 6.347%; autophagy induction [3, 11]: 1.322%; autophagy induction [3, 12]: 9.873%; autophagy induction [3, 13]: 11.541%; autophagy induction [3, 14]: 8.0313%; autophagy induction [3, 15]: 1.41%
CC(C)C[C@H](NC(=O)N1CCCCCC1)C(=O)N[C@H](Cc1cn(C)c2ccccc12)C(=O)N[C@H](Cc1ccccn1)C(=O)O	-9.746	-10.9738	-11.345	-17.0217	-8.2266	-8.649	-10.3216	-11.9295	-4.458	-5.829	-9.562	-13.6367	0.2891	0.184	-1.273	0.7204	2.596	1.655	-0.3512	-0.2043	autophagy induction [2, 12]: 5.448%; autophagy induction [2, 13]: 0.3648%; autophagy induction [2, 14]: -0.3169%; autophagy induction [2, 15]: 1.561%; autophagy induction [3, 4]: 4.132%; autophagy induction [3, 5]: 4.485%; autophagy induction [3, 6]: 3.039%; autophagy induction [3, 7]: -0.6751%; autophagy induction [3, 8]: 3.762%; autophagy induction [3, 9]: 6.744%; autophagy induction [3, 10]: 4.273%; autophagy induction [3, 11]: 0.0386%; autophagy induction [3, 12]: 4.084%; autophagy induction [3, 13]: 1.596%; autophagy induction [3, 14]: 3.219%; autophagy induction [3, 15]: 5.8133%
COC1CCN(c2cccc(-c3cc(NC(C)=O)nc(-n4nc(C)cc4C)n3)n2)CC1	-7.33	-8.964	-12.5665	-12.2397	-1.032	0.9672	2.277	7.2174	3.426	13.112	27.8595	52.8636	2.5303	-0.8923	-0.9403	0.4833	5.065	2.721	-0.07864	-0.6053	autophagy induction [2, 12]: 7.172%; autophagy induction [2, 13]: -0.05151%; autophagy induction [2, 14]: 0.1867%; autophagy induction [2, 15]: -2.376%; autophagy induction [3, 4]: 34.4556%; autophagy induction [3, 5]: 27.7724%; autophagy induction [3, 6]: 24.8838%; autophagy induction [3, 7]: 23.4921%; autophagy induction [3, 8]: -5.934%; autophagy induction [3, 9]: -0.6278%; autophagy induction [3, 10]: -1.762%; autophagy induction [3, 11]: -0.9306%; autophagy induction [3, 12]: -4.754%; autophagy induction [3, 13]: 3.79%; autophagy induction [3, 14]: 9.047%; autophagy induction [3, 15]: 19.3391%
